In publication PMC10824102, “Identification of small molecule inhibitors of G3BP-driven stress granule formation” (The Journal of Cell Biology, 2024):

What was measured:
NTF2L domain of G3BP1 = target: T1, NTF2L domain of G3BP1 (Homo sapiens, UniProt Q13283); assay: SPR binding of compounds to sensor-immobilized G3BP1; conditions: for Kd: equilibrium analysis, 1:1 binding model, 25°C, pH 7.4; for Kd of inactive enantiomer relative to active compound: SPR, same domain
T1 construct: made in house; host or cells: E. coli BL21 (DE3)
T1 sequence (Q13283 11-133 limits assumed): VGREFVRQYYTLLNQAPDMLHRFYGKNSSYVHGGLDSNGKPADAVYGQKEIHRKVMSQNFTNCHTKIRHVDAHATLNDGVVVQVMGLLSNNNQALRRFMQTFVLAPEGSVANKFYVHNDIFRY
Method: Binding affinity for G3BP1 was measured by SPR assay using a Biacore 8K instrument (Cytiva) at 25°C at pH 7.4 (20 mM Tris, 300 mM NaCl, 0.05% Tween-20, 2% DMSO) using neutravidin sensor chips. The binding of solution phase molecules was measured to sensor-bound biotinylated, AVI-tagged versions of the NTF2L domain of G3BP1. G3BP1 was captured on the sensor surface at the beginning of each experiment at a level of ∼1,000 RU. A neutravidin-only surface was used as a reference. Binding affinity was measured by equilibrium analysis of double-reference subtracted data performed at seven different analyte concentrations. A 1:1 binding model was used to estimate affinity; the maximum binding response was typically about 90% of the theoretical maximum for a 1:1 interaction given the size of the protein and analytes. Binding at the end of a 90-s association phase was measured; data were only used where equilibrium binding was reached. No regeneration was performed between binding cycles as all tested molecules dissociated completely from the sensor at the end of each cycle. Estimation of binding affinity by kinetic analysis was not performed as kinetic constants were beyond the range that could be reliably measured by the instrumentation.

[1] = system: VCP A232E-induced stress granules in U2OS cells with tdTomato-tagged endogenous G3BP1; assay: Dissolution of stress granules induced by GFP-VCP A232E expression; assay type: cell-based; conditions: 50 μM for 30 min; automated puncta tracking for G3Ia, manual blinded cell tracking for G3Ib
Method: U2OS cells with knock-in of G3BP1-tdTomato ([Yang et al., 2020]) were seeded into 96-well plates (3904; Corning). Either GFP-VCP-A232E or GFP-FUS-R495X were transfected into cells using ViaFect transfection reagent (Promega) 24 h prior to the start of the experiment. For samples to be treated with compounds G3Ia or G3Ia′, Hoechst (1:5,000; Biotium) was added and incubated for 30 min prior to the start of the experiment, washed once with PBS, and the media was changed to 100 μl FluoroBrite DMEM media (Gibco) upon starting the experiment. Imaging of plates was performed on a Cytation C10 spinning disk confocal (BioTek) with a Hamamatsu Orca-Flash 4.0 camera using Gen5 software (version 3.11). Imaging was performed through an Olympus Plan Apo 40× 0.6 NA dry objective with an adjustable collar set to 0.5 μm thickness. Laser autofocus prior to imaging the tdTomato channel was utilized for each image. The temperature was maintained at 37°C on the instrument and the cells were supplied with 5% CO2. A 7 × 7 tilescan was taken at the center of each well, capturing the tdTomato and GFP channels (and Hoechst when present). After completing the tilescan, 100 μl FluoroBrite with 100 μM (2×) G3I compound (vortexed for 5 s) was added to each well and incubated for 20 min before starting another round of imaging in the same locations as the first round. Samples treated with G3Ib or G3Ib′ were analyzed manually, scoring each cell with spontaneous granules for the presence or absence of granules following treatment with the compound. For experiments in which G3I compounds were pretreated prior to transfection, 50 μM of indicated compound or vehicle control were added to U2OS cells 20 min prior to the addition of the transfection reagent. […]
Samples treated with G3Ia or G3Ia′ were analyzed using an automated pipeline. […]

[2] = system: preformed stress granules in U2OS cells stably expressing G3BP1-GFP; assay: Post-addition: dissolution of preformed arsenite-induced stress granules; assay type: cell-based; conditions: 50 μM added after 30 min of 250 μM NaAsO2
Method: For post-addition of compounds, U2OS cells stably expressing G3BP1-GFP were seeded into eight-well Lab-Tek chambered cover glass (Nunc) for sodium arsenite experiments or 35-mm glass-bottom dishes (MatTek) for heat shock experiments. Immediately prior to the experiment, media was replaced with FluoroBrite DMEM media (Gibco) in each well supplemented with 10% FBS and 4 mM L-glutamine; for sodium arsenite experiments, arsenite was added at a final concentration of 250 μM. Cells were then placed on a microscope on which 37°C temperature and 5% CO2 were maintained using a Bold Line Cage Incubator (Okolab) and an objective heater (Bioptechs), and 5–10 xy fields were stored. For sodium arsenite experiments, acquisition began immediately after finding all xy positions, 4 min after the addition of sodium arsenite. 30 min after arsenite was added, 250 μl FluoroBrite DMEM with 250 μM sodium arsenite and 0.1 mM (2×) G3I compound (vortexed for 5 s) was added to the sample. For heat shock experiments, each xy position was imaged every minute. At 2 min into the acquisition, the objective heater was ramped to 43°C. Following this, 250 μM (5×) G3I compound was prepared in FluoroBrite DMEM and vortexed for 15 s. This solution was kept on a 47°C heater near the microscope along with a pipette tip. […]

[3] = system: stress granule formation in U2OS cells; assay: 24 h pretreatment followed by arsenite, immunofluorescence; assay type: cell-based; conditions: then 500 μM NaAsO2 for 30 min
[4] = system: G3BP1- and FUS R495X-positive puncta in U2OS cells with tdTomato-tagged endogenous G3BP1; assay: Dissolution of puncta induced by FUS R495X expression; assay type: cell-based; conditions: for G3BP1 puncta eliminated / reduction in number of puncta positive for FUS R495X: FUS R495X-transfected cells, 50 μM for 30 min; for extraction of FUS R495X from granules: result in words
Method: U2OS cells with knock-in of G3BP1-tdTomato ([Yang et al., 2020]) were seeded into 96-well plates (3904; Corning). Either GFP-VCP-A232E or GFP-FUS-R495X were transfected into cells using ViaFect transfection reagent (Promega) 24 h prior to the start of the experiment. For samples to be treated with compounds G3Ia or G3Ia′, Hoechst (1:5,000; Biotium) was added and incubated for 30 min prior to the start of the experiment, washed once with PBS, and the media was changed to 100 μl FluoroBrite DMEM media (Gibco) upon starting the experiment. Imaging of plates was performed on a Cytation C10 spinning disk confocal (BioTek) with a Hamamatsu Orca-Flash 4.0 camera using Gen5 software (version 3.11). Imaging was performed through an Olympus Plan Apo 40× 0.6 NA dry objective with an adjustable collar set to 0.5 μm thickness. Laser autofocus prior to imaging the tdTomato channel was utilized for each image. The temperature was maintained at 37°C on the instrument and the cells were supplied with 5% CO2. A 7 × 7 tilescan was taken at the center of each well, capturing the tdTomato and GFP channels (and Hoechst when present). After completing the tilescan, 100 μl FluoroBrite with 100 μM (2×) G3I compound (vortexed for 5 s) was added to each well and incubated for 20 min before starting another round of imaging in the same locations as the first round. Samples treated with G3Ib or G3Ib′ were analyzed manually, scoring each cell with spontaneous granules for the presence or absence of granules following treatment with the compound. For experiments in which G3I compounds were pretreated prior to transfection, 50 μM of indicated compound or vehicle control were added to U2OS cells 20 min prior to the addition of the transfection reagent. After 24 h of transfection, the cells were washed with PBS, fixed in 4% formaldehyde, and incubated with Hoechst (1:5,000; Biotium) in PBS for 30 min prior to the start of the experiment, washed once with PBS, and at room temperature imaging on the Cytation C10 spinning disk confocal was performed as described above.
Samples treated with G3Ia or G3Ia′ were analyzed using an automated pipeline. Segmentation was performed in both ilastik and Cellpose 2.0. Nuclear segmentation using the Hoechst channel and granule segmentation in both GFP and tdTomato channels was performed via pixel classification in ilastik using small cropped portions of the tilescan as the training dataset for each. Individual cell segmentation was performed in Cellpose 2.0 by inputting a merged RGB of the Hoechst and G3BP1-tdTomato channels. The Cellpose output was then eroded by one pixel and set as a binary mask in Fiji. The original three raw channels, three output masks from ilastik, and the one mask generated from Cellpose were all inputted into CellProfiler to generate per-cell measurements for granules as defined by GFP or tdTomato.

Structure (SMILES)	Kd (NTF2L domain of G3BP1) [µM]	dissolution of VCP A232E-induced stress granules [1] [%]	reduction of stress granule area (preformed granules) [2] [%]	stress granule formation after 24 h pretreatment ([3]; 5 μM)	stress granule formation after 24 h pretreatment ([3]; 20 μM)	stress granule formation after 24 h pretreatment ([3]; 50 μM)	G3BP1 puncta eliminated [4] [%]	reduction in number of puncta positive for FUS R495X [4] [%]	extraction of FUS R495X from granules [4]	Kd of inactive enantiomer relative to active compound (NTF2L domain of G3BP1) [fold]	stress granule formation after 24 h pretreatment ([3]; indicated doses)
COCCC(NC(=O)C(C)NC(=O)C(NC(=O)C(NC(=O)C(F)CC(C)(C)C)C(C)(C)O)C(C)c1ccccc1)C(=O)N(C)Cc1ccccc1 (stereo not drawn) [G3Ia]	0.54	83	~74	no substantial impairment	no substantial impairment	inhibited stress granule formation	92	3	unable to extract FUS R495X from granules		
COCCC(NC(=O)C(C)NC(=O)C(NC(=O)C(NC(=O)C(F)CC(C)(C)C)C(C)(C)O)C(C)c1ccccc1)C(=O)N(C)Cc1ccccc1 (stereo not drawn) [G3Ia′]	75.5						6	4		> 100	no discernable effects
CC(NC(=O)C(NC(=O)C(NC(=O)CCC(C)(C)C)C(C)(C)O)C(C)c1ccccc1)C(=O)N1CCCC1c1ccccc1 (stereo not drawn) [G3Ib]	0.15	69	~84		nearly completely inhibited	nearly completely inhibited			unable to extract FUS R495X from granules		
CC(NC(=O)C(NC(=O)C(NC(=O)CCC(C)(C)C)C(C)(C)O)C(C)c1ccccc1)C(=O)N1CCCC1c1ccccc1 (stereo not drawn) [G3Ib′]	44.5	6								> 100	no discernable effects
